Laboratory results as given in patent publication US9656988B2 (Pharmacyclics LLC, priority 2013, dated 2017).
Where two headings read alike, the source gives them in different places.

Biological target: BTK (Homo sapiens (Human), UniProt Q06187)
Experiment: Btk in vitro inhibitory activity (one of Method A TR-FRET, Method B electrophoretic mobility shift, Method C radiometric filter binding)
Assay type: biochemical
[1] = determined using one of the methods of Example 355a, 355b and 355c, read-out: BTK IC50

BTK, sequence (Q06187 whole entry): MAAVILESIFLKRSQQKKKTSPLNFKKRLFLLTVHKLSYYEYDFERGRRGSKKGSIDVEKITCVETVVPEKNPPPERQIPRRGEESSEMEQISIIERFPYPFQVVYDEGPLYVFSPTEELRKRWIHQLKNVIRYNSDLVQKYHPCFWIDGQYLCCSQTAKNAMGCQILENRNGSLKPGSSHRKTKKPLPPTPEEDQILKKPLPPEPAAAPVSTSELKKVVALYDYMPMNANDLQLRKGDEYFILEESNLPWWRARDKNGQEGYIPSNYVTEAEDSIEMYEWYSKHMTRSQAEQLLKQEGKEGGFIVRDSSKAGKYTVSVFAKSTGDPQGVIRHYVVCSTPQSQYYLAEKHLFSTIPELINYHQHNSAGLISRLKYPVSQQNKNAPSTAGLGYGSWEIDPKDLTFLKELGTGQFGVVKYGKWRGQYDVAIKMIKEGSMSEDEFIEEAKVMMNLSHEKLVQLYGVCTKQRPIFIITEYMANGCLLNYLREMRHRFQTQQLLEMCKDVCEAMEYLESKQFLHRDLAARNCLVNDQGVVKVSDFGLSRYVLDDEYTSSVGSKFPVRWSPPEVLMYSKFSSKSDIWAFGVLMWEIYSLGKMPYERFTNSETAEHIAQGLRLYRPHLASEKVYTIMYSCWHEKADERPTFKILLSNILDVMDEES

| Compound | IC50 [1] [nM] | IC50 (read-out: Btk (IC50)) [nM] | IC50 [nM] | IC50 (Btk (IC50)) [nM] |
| --- | --- | --- | --- | --- |
| COc1ccc(C(=O)N[C@@H]2CCCN(c3cnc(C(N)=O)c(Nc4ccc5ncccc5c4)n3)C2)cc1 [Example 120, (R)-5-(3-(4-methoxybenzamido)piperidin-1-yl)-3-(quinolin-6-ylamino)pyrazine-2-carboxamide] | 10 to 100 | 10 to 100 | – | – |
| COc1ccc(C(=O)N[C@@H]2CCCN(c3cnc(C(N)=O)c(Nc4ccc5ncsc5c4)n3)C2)cc1 [Example 121, (R)-3-(benzo[d]thiazol-6-ylamino)-5-(3-(4-methoxybenzamido)piperidin-1-yl)pyrazine-2-carboxamide] | 10 to 100 | 10 to 100 | – | – |
| COc1ccc(C(=O)N[C@@H]2CCCN(c3cnc(C(N)=O)c(Nc4ccc(C5CCOCC5)cc4)n3)C2)cc1 [Example 122, (R)-5-(3-(4-methoxybenzamido)piperidin-1-yl)-3-(4-(tetrahydro-2H-pyran-4-yl)phenylamino)pyrazine-2-carboxamide] | < 10 | – | – | – |
| COc1ccc(C(=O)N[C@@H]2CCCN(c3cnc(C(N)=O)c(Nc4ccc(N5CCOCC5)cc4)n3)C2)cc1 [Example 123, (R)-5-(3-(4-methoxybenzamido)piperidin-1-yl)-3-(4-morpholinophenylamino)pyrazine-2-carboxamide] | < 10 | – | – | – |
| COc1ccc(C(=O)N[C@@H]2CCCN(c3cnc(C(N)=O)c(Nc4ccc(N5CCOCC5)nc4)n3)C2)cc1 [Example 124, (R)-5-(3-(4-methoxybenzamido)piperidin-1-yl)-3-(6-morpholinopyridin-3-ylamino)pyrazine-2-carboxamide] | < 10 | – | 10 to 100 | – |
| COc1ccc(C(=O)N[C@@H]2CCCN(c3cnc(C(N)=O)c(Nc4ccc(N5CCOCC5)c(F)c4)n3)C2)cc1 [Example 125, (R)-3-(3-fluoro-4-morpholinophenylamino)-5-(3-(4-methoxybenzamido)piperidin-1-yl)pyrazine-2-carboxamide] | < 10 | – | – | – |
| COc1ccc(C(=O)N[C@@H]2CCCN(c3cnc(C(N)=O)c(Nc4ccc(N5CCOCC5=O)cc4)n3)C2)cc1 [Example 126, (R)-5-(3-(4-methoxybenzamido)piperidin-1-yl)-3-(4-(3-oxomorpholino)phenylamino)pyrazine-2-carboxamide] | < 10 | – | 10 to 100 | – |
| COc1ccc(C(=O)N[C@@H]2CCCN(c3cnc(C(N)=O)c(Nc4ccc(-n5ccccc5=O)cc4)n3)C2)cc1 [Example 127, (R)-5-(3-(4-methoxybenzamido)piperidin-1-yl)-3-(4-(2-oxopyridin-1(2H)-yl)phenylamino)pyrazine-2-carboxamide] | 10 to 100 | 10 to 100 | – | – |
| COc1ccc(C(=O)N[C@@H]2CCCN(c3cnc(C(N)=O)c(Nc4ccc(N5CCCCC5=O)cc4)n3)C2)cc1 [Example 128, (R)-5-(3-(4-methoxybenzamido)piperidin-1-yl)-3-(4-(2-oxopiperidin-1-yl)phenylamino)pyrazine-2-carboxamide] | < 10 | < 10 | – | – |
| CN1CCN(c2ccc(Nc3nc(N4CCC[C@@H](NC(=O)c5ccc(C(C)(C)C)cc5)C4)cnc3C(N)=O)cc2)CC1 [Example 129, (R)-5-(3-(4-tert-butylbenzamido)piperidin-1-yl)-3-(4-(4-methylpiperazin-1-yl)phenylamino)pyrazine-2-carboxamide] | < 10 | < 10 | – | – |
| CN1CCC(c2ccc(Nc3nc(N4CCC[C@@H](NC(=O)c5ccc(C(C)(C)C)cc5)C4)cnc3C(N)=O)cc2)CC1 [Example 130, (R)-5-(3-(4-tert-butylbenzamido)piperidin-1-yl)-3-(4-(1-methylpiperidin-4-yl)phenylamino)pyrazine-2-carboxamide] | < 10 | < 10 | – | – |
| COc1ccc(C(=O)N[C@@H]2CCCN(c3cnc(C(N)=O)c(Nc4ccc(C5CCN(C)CC5)cc4)n3)C2)cc1 [Example 131, (R)-5-(3-(4-methoxybenzamido)piperidin-1-yl)-3-(4-(1-methylpiperidin-4-yl)phenylamino)pyrazine-2-carboxamide] | < 10 | < 10 | – | – |
| CCN1CCC(c2ccc(Nc3nc(N4CCC[C@@H](NC(=O)c5ccc(OC)cc5)C4)cnc3C(N)=O)cc2)CC1 [Example 132, (R)-3-(4-(1-ethylpiperidin-4-yl)phenylamino)-5-(3-(4-methoxybenzamido)piperidin-1-yl)pyrazine-2-carboxamide] | < 10 | < 10 | – | – |
| COc1ccc(C(=O)N[C@@H]2CCCN(c3cnc(C(N)=O)c(Nc4ccc(C5CCN(C6CC6)CC5)cc4)n3)C2)cc1 [Example 133, (R)-3-(4-(1-cyclopropylpiperidin-4-yl)phenylamino)-5-(3-(4-methoxybenzamido)piperidin-1-yl)pyrazine-2-carboxamide] | < 10 | < 10 | – | – |
| COc1ccc(C(=O)N[C@@H]2CCCN(c3cnc(C(N)=O)c(Nc4ccc(C5CCN(C(C)C)CC5)cc4)n3)C2)cc1 [Example 134, (R)-3-(4-(1-isopropylpiperidin-4-yl)phenylamino)-5-(3-(4-methoxybenzamido)piperidin-1-yl)pyrazine-2-carboxamide] | < 10 | < 10 | – | – |
| COc1ccc(C(=O)N[C@@H]2CCCN(c3cnc(C(N)=O)c(Nc4ccc(C5CCN(C6CCCC6)CC5)cc4)n3)C2)cc1 [Example 135, (R)-3-(4-(1-cyclopentylpiperidin-4-yl)phenylamino)-5-(3-(4-methoxybenzamido)piperidin-1-yl)pyrazine-2-carboxamide] | < 10 | < 10 | – | – |
| COc1ccc(C(=O)N[C@@H]2CCCN(c3cnc(C(N)=O)c(Nc4ccc(C5CCN(CC#N)CC5)cc4)n3)C2)cc1 [Example 136, (R)-3-(4-(1-(cyanomethyl)piperidin-4-yl)phenylamino)-5-(3-(4-methoxybenzamido)piperidin-1-yl)pyrazine-2-carboxamide] | 10 to 100 | 10 to 100 | – | – |
| COc1ccc(C(=O)N[C@@H]2CCCN(c3cnc(C(N)=O)c(Nc4ccc(C5CCN(CC(F)(F)F)CC5)cc4)n3)C2)cc1 [Example 137, (R)-5-(3-(4-methoxybenzamido)piperidin-1-yl)-3-(4-(1-(2,2,2-trifluoroethyl)piperidin-4-yl)phenylamino)pyrazine-2-carboxamide] | 10 to 100 | – | – | 10 to 100 |
| COc1ccc(C(=O)N[C@@H]2CCCN(c3cnc(C(N)=O)c(Nc4ccc(C5CCN(C=O)CC5)cc4)n3)C2)cc1 [Example 138, (R)-3-(4-(1-formylpiperidin-4-yl)phenylamino)-5-(3-(4-methoxybenzamido)piperidin-1-yl)pyrazine-2-carboxamide] | < 10 | < 10 | – | – |
| COc1ccc(C(=O)N[C@@H]2CCCN(c3cnc(C(N)=O)c(Nc4ccc(C5CCN(C(C)=O)CC5)cc4)n3)C2)cc1 [Example 139, (R)-3-(4-(1-acetylpiperidin-4-yl)phenylamino)-5-(3-(4-methoxybenzamido)piperidin-1-yl)pyrazine-2-carboxamide] | < 10 | < 10 | – | – |
| CCC(=O)N1CCC(c2ccc(Nc3nc(N4CCC[C@@H](NC(=O)c5ccc(OC)cc5)C4)cnc3C(N)=O)cc2)CC1 [Example 140, (R)-5-(3-(4-methoxybenzamido)piperidin-1-yl)-3-(4-(1-propionylpiperidin-4-yl)phenylamino)pyrazine-2-carboxamide] | < 10 | – | – | – |
| COc1ccc(C(=O)N[C@@H]2CCCN(c3cnc(C(N)=O)c(Nc4ccc(C5CCN(C(=O)CC#N)CC5)cc4)n3)C2)cc1 [Example 141, (R)-3-(4-(1-(2-cyanoacetyl)piperidin-4-yl)phenylamino)-5-(3-(4-methoxybenzamido)piperidin-1-yl)pyrazine-2-carboxamide] | < 10 | – | – | – |
| COc1ccc(C(=O)N[C@@H]2CCCN(c3cnc(C(N)=O)c(Nc4ccc(C5CCN(C(=O)N(C)C)CC5)cc4)n3)C2)cc1 [Example 142, (R)-3-(4-(1-(dimethylcarbamoyl)piperidin-4-yl)phenylamino)-5-(3-(4-methoxybenzamido)piperidin-1-yl)pyrazine-2-carboxamide] | 10 to 100 | – | – | 10 to 100 |
| COc1ccc(C(=O)N[C@@H]2CCCN(c3cnc(C(N)=O)c(Nc4ccc(C5CCN(S(C)(=O)=O)CC5)cc4)n3)C2)cc1 [Example 143, (R)-5-(3-(4-methoxybenzamido)piperidin-1-yl)-3-(4-(1-(methylsulfonyl)piperidin-4-yl)phenylamino)pyrazine-2-carboxamide] | 10 to 100 | – | – | 10 to 100 |
| COc1ccc(C(=O)N[C@@H]2CCCN(c3cnc(C(N)=O)c(Nc4ccc(N5CCC(C(=O)N(C)C)CC5)cc4)n3)C2)cc1 [Example 144, (R)-3-(4-(4-(dimethylcarbamoyl)piperidin-1-yl)phenylamino)-5-(3-(4-methoxybenzamido)piperidin-1-yl)pyrazine-2-carboxamide] | < 10 | – | – | < 10 |
| CS(=O)(=O)c1ccc(Nc2nc(N3CCC[C@@H](NC(=O)N4CCCCC4)C3)cnc2C(N)=O)cc1 [Example 145, (R)-3-(4-(methylsulfonyl)phenylamino)-5-(3-(piperidine-1-carboxamido)piperidin-1-yl)pyrazine-2-carboxamide] | < 10 | < 10 | – | – |
| CN1CCN(c2ccc(Nc3nc(N4CCC[C@@H](NC(=O)N5CCCCC5)C4)cnc3C(N)=O)cc2)CC1 [Example 146, (R)-3-(4-(4-methylpiperazin-1-yl)phenylamino)-5-(3-(piperidine-1-carboxamido)piperidin-1-yl)pyrazine-2-carboxamide] | 10 to 100 | – | – | 10 to 100 |
| CN1CCC(c2ccc(Nc3nc(N4CCC[C@@H](NC(=O)N5CCCCC5)C4)cnc3C(N)=O)cc2)CC1 [Example 147, (R)-3-(4-(1-methylpiperidin-4-yl)phenylamino)-5-(3-(piperidine-1-carboxamido)piperidin-1-yl)pyrazine-2-carboxamide] | < 10 | < 10 | – | – |
| NC(=O)c1ncc(N2CCC[C@@H](NC(=O)N3CCCCC3)C2)nc1Nc1ccc(C2CCN(C=O)CC2)cc1 [Example 148, (R)-3-(4-(1-formylpiperidin-4-yl)phenylamino)-5-(3-(piperidine-1-carboxamido)piperidin-1-yl)pyrazine-2-carboxamide] | < 10 | < 10 | – | – |
